# Measured values as given in patent US20250136595A1, “ACYLATED HETEROCYCLIC QUINAZOLINE DERIVATIVES AS INHIBITORS OF ERBB2” (Enliven Inc., priority 2022, published 2025).
# What was measured:
# [1] = target: Ba/F3 ERBB2 YVMA (Homo sapiens, UniProt P04626, DUP772-775, cells depend on it); experiment: Cell viability assay (CellTiter Glo) in Ba/F3 cells engineered to express ERBB2 YVMA; format: cell-based, mouse; settings: Ba/F3 cells expressing human ERBB2 YVMA mutant, 72 hours, % viability, read-out: Ba/F3 ERBB2 YVMA IC50
# Description: Cells were treated with compounds, and cell viability was measured as a metric of kinase inhibition.
# The Ba/F3 cell line is IL-3-dependent mouse cell line derived from the C3H mouse strain. Ba/F3 cell lines were engineered to express human ERBB2 or EGFR kinases, rendering the cells IL-3 independent. The lines were generated via retroviral transduction utilizing a Moloney murine leukemia virus (MMLV) promoter, and constructs are stably integrated into the cell genome. The sequences of the ERBB2 and EGFR genes used were NCBI Reference Sequences NM_004448.3 and NM_005228.3, respectively.
# Similarly, Ba/F3 cell lines engineered to express EGFR, ERBB2, or ERBB2 mutants were grown, harvested, counted and seeded at 3000 cells per well in 96-well plates for the data sets shown in Tables B3-B4. A subset of wells contained media only (low control, “LC”).
# Table B1 provides the growth media and number of cells seeded per well for the each cell line.
# Compounds were dissolved in DMSO and serially diluted. Serially-diluted compound or a DMSO only control (high control, “HC”) was added to the plated cells in each well. […] The final proportion of DMSO never exceeded 0.1%.
# Plates were placed in a 37° C., 5% CO2 incubator for 72 hours. Plates were then removed from the incubator and equilibrated for 15 minutes at room temperature. 40 μl of CellTiter Glo reagent (Promega) was added to measure the relative level of metabolically active cells by quantifying intracellular ATP concentrations. Plates were incubated for 30 minutes at room temperature, and luminescence was measured. Percent viability was normalized to a vehicle control only using the following formula: % viability=100×(Lumsample−LumLC)/(LumHC−LumLC). Graphical curves were fitted using a nonlinear regression model with a sigmoidal dose response.
# [2] = target: T1, phosphorylated EGFR (pEGFR) (Homo sapiens, UniProt P00533); experiment: Detection of phosphorylated EGFR (pEGFR) in EGF-stimulated A431 cells (AlphaLISA); format: cell-based; settings: A431 cells (10% FBS), 4 hours incubation, EGF 30 ng/mL for 10 minutes
# T1 construct: performed to measure phosphorylated EGFR levels using A431 cells; endogenous in cells; host or cells: A431
# Description: Enzyme-linked immunosorbent assays (ELISA) were performed to measure phosphorylated EGFR levels using A431 cells (10% FBS). A431 (1.0*10^4 cells/40 μl/well) cells were seeded in 384 well. Compounds were dissolved in DMSO, serially diluted in DMSO and then were added, mixed, and incubated for 4 hours at 37° C., 5% CO2. Following the 4-hours incubation, cells were stimulated for 10 minutes with EGF (Invitrogen, cat #PHG0311) at a final concentration of 30 ng/mL in the incubator. The media was aspirated and cells were lysed in 10 μL lysis buffer with protease and phosphatase inhibitors (PerkinElmer, cat #ALSU-PEGFR-A50K). The plates were placed on a shaker for 5 minutes and then incubated for 30 min at 4° C. for complete lysis. The lysate was transferred to an Optiplate (Perkin Elmer, cat #6007290).
# Acceptor mix (PerkinElmer, cat #ALSU-PEGFR-A50K) was prepared just before use and 5 μL was dispensed to all the wells, followed by a 1.5-2 h incubation at room temperature in dark. The donor mix (PerkinElmer, cat #ALSU-PEGFR-A50K) was prepared under low light conditions prior to use and 5 μl of donor mix was added to all the wells under subdued lighting or green filters. The plates were placed on a shaker for 5 min, sealed, and incubated overnight at room temperature in dark. Plates were read on the Envision (PerkinElmer) using standard AlphaLISA settings.
# The percentage of inhibition on EGFR phosphorylation was calculated following equation: % Inhibition=100×(LumHC−LumSample)/(LumHC−LumLC). The low and high controls (LC/HC) are generated from lysate from wells with cells treated with DMSO or […] Staurosporine (BioAustralis, cat #BIA-S1086), […]. IC50 values were calculated by fitting the Curve using XLfit (v5.3.1.3), equation 201: Y=Bottom+ (Top−Bottom)/(1+10^((LogIC50−X)*HillSlope)).
# [3] = target: T2, phosphorylated ERBB2 (pERBB2) (Homo sapiens, UniProt P04626); experiment: Detection of phosphorylated ERBB2 (pERBB2) by ELISA in BT-474 cells; format: cell-based; settings: four hour incubation with compound
# T2 construct: endogenous in cells; host or cells: BT-474
# Description: BT-474 cells were seeded into a 96-well at 2.0*10^4 cells/100 μl/well. Compounds were dissolved and serially diluted in DMSO. The compounds were then were added, mixed, and incubated for four hours at 37° C., 5% CO2. Compounds were added using four-fold dilutions at final concentrations ranging from 10 μM to 0.01 nM. Following the four hour incubation with compounds, cell lysates were prepared. Plates were centrifuged for 5 min at 3000 RPM, and supernatant was removed from each well. Cells were washed 3 times by resuspension in 150 μl PBS, followed by centrifugation and removal of the supernatant, as above. […] Cells were incubated with lysis buffer for 1 hour at 4° C., and then stored at -80° C. Enzyme-linked immunosorbent assays (ELISA) were performed to measure phosphorylated ERBB2 levels. […] The next day, plates were washed with PBS+0.05% Tween20 (PBST). 150 μl of 5% BSA blocking solution was added for 1 hour at room temperature, with shaking. Plates were washed with PBST. Cell lysates were thawed and 100 μl of lysate was added to the ELISA plate. The plates were incubated for 2 hours at room temperature, with shaking. […] Plates were incubated for 1 hour at room temperature, with shaking. Plates were then washed with PBST, and 100 μl TMB substrate solution (R&D Systems, cat #DY999) was added. Plate were incubated in the dark for 20 minutes at room temperature. 50 μl of Stop solution (R&D Systems, cat #DY994) (50 μl) was added to each well and mixed. Optical density at 450 nm was read on an EnSpire plate reader (Perkin Elmer). The remaining kinase activity by calculated using the following formula: % Relative activity=100×([…]). The low and high control values (“LC” and “HC”) were generated from lysate from wells without cells or with cells treated with 0.1% DMSO, respectively.
# Chain of Ba/F3 ERBB2 YVMA (P04626 with tags, fused parts or gaps DUP772-775): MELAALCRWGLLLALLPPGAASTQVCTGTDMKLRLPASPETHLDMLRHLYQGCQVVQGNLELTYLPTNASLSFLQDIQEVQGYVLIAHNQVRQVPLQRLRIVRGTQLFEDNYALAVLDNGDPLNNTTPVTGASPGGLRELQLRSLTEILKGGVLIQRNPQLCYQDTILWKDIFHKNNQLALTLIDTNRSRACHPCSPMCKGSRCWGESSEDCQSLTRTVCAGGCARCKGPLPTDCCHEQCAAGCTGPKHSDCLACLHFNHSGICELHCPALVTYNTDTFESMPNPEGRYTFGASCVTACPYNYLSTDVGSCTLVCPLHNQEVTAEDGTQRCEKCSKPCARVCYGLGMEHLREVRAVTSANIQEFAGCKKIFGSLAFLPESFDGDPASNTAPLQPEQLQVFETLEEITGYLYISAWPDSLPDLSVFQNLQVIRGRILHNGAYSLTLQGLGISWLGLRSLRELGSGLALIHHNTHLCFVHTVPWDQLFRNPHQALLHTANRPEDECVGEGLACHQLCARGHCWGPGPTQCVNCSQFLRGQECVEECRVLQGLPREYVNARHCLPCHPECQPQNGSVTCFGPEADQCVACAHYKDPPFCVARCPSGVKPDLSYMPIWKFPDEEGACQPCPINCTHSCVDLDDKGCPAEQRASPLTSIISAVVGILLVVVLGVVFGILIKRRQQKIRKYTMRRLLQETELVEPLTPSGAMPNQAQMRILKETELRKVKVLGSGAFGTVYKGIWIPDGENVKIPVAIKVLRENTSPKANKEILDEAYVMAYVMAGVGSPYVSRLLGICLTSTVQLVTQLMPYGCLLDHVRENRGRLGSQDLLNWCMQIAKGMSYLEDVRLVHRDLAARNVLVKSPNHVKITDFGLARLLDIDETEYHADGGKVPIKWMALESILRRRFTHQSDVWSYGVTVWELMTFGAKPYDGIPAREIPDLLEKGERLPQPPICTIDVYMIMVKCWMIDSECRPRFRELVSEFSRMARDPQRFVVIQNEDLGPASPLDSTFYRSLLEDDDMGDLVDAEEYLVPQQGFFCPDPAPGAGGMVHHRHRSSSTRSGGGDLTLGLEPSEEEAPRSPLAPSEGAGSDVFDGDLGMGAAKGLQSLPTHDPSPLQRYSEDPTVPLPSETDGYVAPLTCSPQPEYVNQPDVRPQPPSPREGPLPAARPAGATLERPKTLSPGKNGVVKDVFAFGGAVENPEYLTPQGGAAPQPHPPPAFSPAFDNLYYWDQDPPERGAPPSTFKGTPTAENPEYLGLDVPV
# T2 sequence (P04626 23-1255): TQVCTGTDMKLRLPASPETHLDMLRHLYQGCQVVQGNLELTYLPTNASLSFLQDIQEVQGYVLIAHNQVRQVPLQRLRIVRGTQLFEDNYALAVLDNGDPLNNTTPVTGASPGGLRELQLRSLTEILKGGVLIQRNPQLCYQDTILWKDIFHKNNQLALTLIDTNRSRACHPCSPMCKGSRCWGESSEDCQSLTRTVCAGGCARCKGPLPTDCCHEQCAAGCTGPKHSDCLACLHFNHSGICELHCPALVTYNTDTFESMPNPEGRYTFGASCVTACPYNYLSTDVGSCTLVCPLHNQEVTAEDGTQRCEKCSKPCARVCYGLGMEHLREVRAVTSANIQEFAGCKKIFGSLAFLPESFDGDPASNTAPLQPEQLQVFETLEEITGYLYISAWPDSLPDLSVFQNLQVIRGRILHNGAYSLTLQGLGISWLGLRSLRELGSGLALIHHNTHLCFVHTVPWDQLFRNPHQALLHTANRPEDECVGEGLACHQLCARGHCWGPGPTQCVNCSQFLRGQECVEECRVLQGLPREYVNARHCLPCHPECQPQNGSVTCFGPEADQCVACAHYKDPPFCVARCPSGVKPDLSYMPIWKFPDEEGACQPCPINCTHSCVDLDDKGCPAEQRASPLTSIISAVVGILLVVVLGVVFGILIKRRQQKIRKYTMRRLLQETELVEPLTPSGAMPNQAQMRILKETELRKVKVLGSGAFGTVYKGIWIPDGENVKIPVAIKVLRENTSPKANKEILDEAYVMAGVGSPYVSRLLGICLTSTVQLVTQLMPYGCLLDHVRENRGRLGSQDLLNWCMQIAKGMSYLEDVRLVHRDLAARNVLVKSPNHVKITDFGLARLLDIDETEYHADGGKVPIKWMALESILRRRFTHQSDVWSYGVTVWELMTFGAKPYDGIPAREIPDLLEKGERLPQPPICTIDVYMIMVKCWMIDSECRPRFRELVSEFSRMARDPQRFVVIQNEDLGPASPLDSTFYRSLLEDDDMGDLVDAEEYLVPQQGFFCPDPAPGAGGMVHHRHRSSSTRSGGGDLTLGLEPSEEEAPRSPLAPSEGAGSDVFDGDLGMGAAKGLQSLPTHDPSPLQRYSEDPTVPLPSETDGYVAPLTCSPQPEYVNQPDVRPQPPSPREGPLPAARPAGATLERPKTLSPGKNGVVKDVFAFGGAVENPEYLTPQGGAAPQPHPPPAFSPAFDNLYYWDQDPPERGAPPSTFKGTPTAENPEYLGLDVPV
# T1 sequence (P00533 25-1210): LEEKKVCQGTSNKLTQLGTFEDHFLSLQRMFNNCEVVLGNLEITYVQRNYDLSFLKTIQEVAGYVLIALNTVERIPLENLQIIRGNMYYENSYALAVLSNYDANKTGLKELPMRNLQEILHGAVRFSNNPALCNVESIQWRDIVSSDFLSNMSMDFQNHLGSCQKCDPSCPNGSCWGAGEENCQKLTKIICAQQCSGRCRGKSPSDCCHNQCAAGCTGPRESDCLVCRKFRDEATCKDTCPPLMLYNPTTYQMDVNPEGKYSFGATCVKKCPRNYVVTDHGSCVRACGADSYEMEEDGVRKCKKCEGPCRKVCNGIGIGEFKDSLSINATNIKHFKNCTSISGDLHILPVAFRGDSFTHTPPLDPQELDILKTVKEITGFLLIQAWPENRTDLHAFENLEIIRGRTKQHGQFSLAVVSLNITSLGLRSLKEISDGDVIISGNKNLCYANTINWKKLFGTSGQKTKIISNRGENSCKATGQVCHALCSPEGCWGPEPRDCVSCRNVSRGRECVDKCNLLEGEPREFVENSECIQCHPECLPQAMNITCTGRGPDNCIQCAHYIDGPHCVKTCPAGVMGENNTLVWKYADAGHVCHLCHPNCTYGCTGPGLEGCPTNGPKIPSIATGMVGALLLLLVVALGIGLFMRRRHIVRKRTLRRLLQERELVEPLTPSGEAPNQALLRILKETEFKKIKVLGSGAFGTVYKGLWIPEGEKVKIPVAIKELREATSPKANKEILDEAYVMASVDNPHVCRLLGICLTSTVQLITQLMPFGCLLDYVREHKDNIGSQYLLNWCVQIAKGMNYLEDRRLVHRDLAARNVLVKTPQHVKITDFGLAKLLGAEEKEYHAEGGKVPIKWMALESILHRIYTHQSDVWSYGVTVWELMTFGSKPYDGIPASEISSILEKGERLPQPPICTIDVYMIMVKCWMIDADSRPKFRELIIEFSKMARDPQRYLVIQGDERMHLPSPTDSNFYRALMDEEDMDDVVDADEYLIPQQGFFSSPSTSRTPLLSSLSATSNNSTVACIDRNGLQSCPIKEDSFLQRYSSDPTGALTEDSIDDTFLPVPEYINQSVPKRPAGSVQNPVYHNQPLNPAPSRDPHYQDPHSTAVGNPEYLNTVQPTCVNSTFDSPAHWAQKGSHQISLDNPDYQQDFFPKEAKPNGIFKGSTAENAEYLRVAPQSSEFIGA
IC50 [2] [nM],IC50 [3] [nM],SMILES,GI50 [1] [nM]
403,14.3,"C=CC(=O)N1CCN(c2ccc3ncnc(Nc4ccc(Oc5ccc6c(c5)ncn6C)c(C)c4)c3n2)CC1 [Compound 14, 1-{4-[4-({3-methyl-4-[(1-methyl-1,3-benzodiazol-5-yl)oxy]phenyl}amino)pyrido[3,2-d]pyrimidin-6-yl]piperazin-1-yl}prop-2-en-1-one]",7.83
629,19.8,"C=CC(=O)N1C2CC1CN(c1ccc3ncnc(Nc4ccc(Oc5ccn6ncnc6c5)c(C)c4)c3n1)C2 [Compound 15, 1-(3-{4-[(3-methyl-4-{[1,2,4]triazolo[1,5-a]pyridin-7-yloxy}phenyl)amino]pyrido[3,2-d]pyrimidin-6-yl}-3,6-diazabicyclo[3.1.1]heptan-6-yl)prop-2-en-1-one]",17.4
8010,30.6,"C=CC(=O)N1CCCN(c2ccc3ncnc(Nc4ccc(Oc5ccn6ncnc6c5)c(C)c4)c3n2)CC1 [Compound 16, 1-(4-{4-[(3-methyl-4-{[1,2,4]triazolo[1,5-a]pyridin-7-yloxy}phenyl)amino]pyrido[3,2-d]pyrimidin-6-yl}-1,4-diazepan-1-yl)prop-2-en-1-one]",99.5
179,20.1,"C=CC(=O)N1CC2CCC(C1)N2c1ccc2ncnc(Nc3ccc(Oc4ccn5ncnc5c4)c(C)c3)c2n1 [Compound 17, 1-(8-{4-[(3-methyl-4-{[1,2,4]triazolo[1,5-a]pyridin-7-yloxy}phenyl)amino]pyrido[3,2-d]pyrimidin-6-yl}-3,8-diazabicyclo[3.2.1]octan-3-yl)prop-2-en-1-one]",5.91
293,13.4,"C=CC(=O)N1C2CCC1CN(c1ccc3ncnc(Nc4ccc(Oc5ccn6ncnc6c5)c(C)c4)c3n1)C2 [Compound 18, 1-(3-{4-[(3-methyl-4-{[1,2,4]triazolo[1,5-a]pyridin-7-yloxy}phenyl)amino]pyrido[3,2-d]pyrimidin-6-yl}-3,8-diazabicyclo[3.2.1]octan-8-yl)prop-2-en-1-one]",6.26
> 10000,98,"C=CC(=O)N1CCC2(CC1)CN(c1ccc3ncnc(Nc4ccc(Oc5ccn6ncnc6c5)c(C)c4)c3n1)C2 [Compound 19, 1-(2-{4-[(3-methyl-4-{[1,2,4]triazolo[1,5-a]pyridin-7-yloxy}phenyl)amino]pyrido[3,2-d]pyrimidin-6-yl}-2,7-diazaspiro[3.5]nonan-7-yl)prop-2-en-1-one]",176
> 10000,37.9,"C=CC(=O)N1CCC2(CCN(c3ccc4ncnc(Nc5ccc(Oc6ccn7ncnc7c6)c(C)c5)c4n3)C2)C1 (stereo not drawn) [Compound 20, 1-(7-{4-[(3-methyl-4-{[1,2,4]triazolo[1,5-a]pyridin-7-yloxy}phenyl)amino]pyrido[3,2-d]pyrimidin-6-yl}-2,7-diazaspiro[4.4]nonan-2-yl)prop-2-en-1-one]",21
9420,12.1,"C=CC(=O)N1CCC2(C1)CN(c1ccc3ncnc(Nc4ccc(Oc5ccn6ncnc6c5)c(C)c4)c3n1)C2 [Compound 21, 1-(2-{4-[(3-methyl-4-{[1,2,4]triazolo[1,5-a]pyridin-7-yloxy}phenyl)amino]pyrido[3,2-d]pyrimidin-6-yl}-2,6-diazaspiro[3.4]octan-6-yl)prop-2-en-1-one]",9.76
> 10000,62.8,"CC#CC(=O)N1CCN(c2ccc3ncnc(Nc4ccc(Oc5ccn6ncnc6c5)c(C)c4)c3n2)C[C@@H]1C [Compound 22, 1-[(2S)-2-methyl-4-{4-[(3-methyl-4-{[1,2,4]triazolo[1,5-a]pyridin-7-yloxy}phenyl)amino]pyrido[3,2-d]pyrimidin-6-yl}piperazin-1-yl]but-2-yn-1-one]",34.9
530,25.2,"CC#CC(=O)N1CCN(c2ccc3ncnc(Nc4ccc(Oc5ccn6ncnc6c5)c(C)c4)c3n2)C[C@H]1C [Compound 23, 1-[(2R)-2-methyl-4-{4-[(3-methyl-4-{[1,2,4]triazolo[1,5-a]pyridin-7-yloxy}phenyl)amino]pyrido[3,2-d]pyrimidin-6-yl}piperazin-1-yl]but-2-yn-1-one]",7.17
> 10000,91.4,"CC#CC(=O)N1CCN(c2ccc3ncnc(Nc4ccc(Oc5ccn6ncnc6c5)c(C)c4)c3n2)[C@H](C)C1 [Compound 24, 1-[(3R)-3-methyl-4-{4-[(3-methyl-4-{[1,2,4]triazolo[1,5-a]pyridin-7-yloxy}phenyl)amino]pyrido[3,2-d]pyrimidin-6-yl}piperazin-1-yl]but-2-yn-1-one]",68.9
> 10000,63.5,"CC#CC(=O)N1CCN(c2ccc3ncnc(Nc4ccc(Oc5ccn6ncnc6c5)c(C)c4)c3n2)[C@@H](C)C1 [Compound 25, 1-[(3S)-3-methyl-4-{4-[(3-methyl-4-{[1,2,4]triazolo[1,5-a]pyridin-7-yloxy}phenyl)amino]pyrido[3,2-d]pyrimidin-6-yl}piperazin-1-yl]but-2-yn-1-one]",23.4
2350,35.5,"CC#CC(=O)N1CC2CCC(C1)N2c1ccc2ncnc(Nc3ccc(Oc4ccn5ncnc5c4)c(C)c3)c2n1 [Compound 26, 1-(8-{4-[(3-methyl-4-{[1,2,4]triazolo[1,5-a]pyridin-7-yloxy}phenyl)amino]pyrido[3,2-d]pyrimidin-6-yl}-3,8-diazabicyclo[3.2.1]octan-3-yl)but-2-yn-1-one]",6.16
2800,60.4,"CC#CC(=O)N1C2CCC1CN(c1ccc3ncnc(Nc4ccc(Oc5ccn6ncnc6c5)c(C)c4)c3n1)C2 [Compound 27, 1-(3-{4-[(3-methyl-4-{[1,2,4]triazolo[1,5-a]pyridin-7-yloxy}phenyl)amino]pyrido[3,2-d]pyrimidin-6-yl}-3,8-diazabicyclo[3.2.1]octan-8-yl)but-2-yn-1-one]",27.4
